What follows are molecules tested against T1, GCase (Homo sapiens, UniProt P04062) (assay: activation of GCase in a live cell PFB assay in HELA cells). Conditions: EC50 given as range classes.
T1 construct: endogenous in cells; host or cells: HeLa cells
T1 sequence (P04062 40-536): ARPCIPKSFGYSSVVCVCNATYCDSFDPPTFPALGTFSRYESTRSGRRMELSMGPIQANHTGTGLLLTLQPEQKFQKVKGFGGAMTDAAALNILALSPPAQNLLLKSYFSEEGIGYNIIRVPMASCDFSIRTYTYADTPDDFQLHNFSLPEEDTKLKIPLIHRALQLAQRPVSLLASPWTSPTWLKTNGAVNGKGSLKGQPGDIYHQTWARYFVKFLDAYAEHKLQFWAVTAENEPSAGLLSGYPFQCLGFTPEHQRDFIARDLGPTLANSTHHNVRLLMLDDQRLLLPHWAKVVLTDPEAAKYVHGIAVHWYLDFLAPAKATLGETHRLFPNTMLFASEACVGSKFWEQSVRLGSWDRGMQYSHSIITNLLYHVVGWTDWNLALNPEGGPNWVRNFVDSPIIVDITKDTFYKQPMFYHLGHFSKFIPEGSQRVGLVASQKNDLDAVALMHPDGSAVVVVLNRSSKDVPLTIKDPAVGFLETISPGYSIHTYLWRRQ
Format: cell-based
Procedure: Exemplary compounds were evaluated for activation of GCase in a live cell PFB assay in HELA cells (essentially as described in Ysselstein et al., “LRRK2 kinase activity regulates lysosomal glucocerebrosidase in neurons derived from Parkinson's disease patients” Nature Communications (2019) 10:5570). […] EC50 ranges: A: <10 μM; B: >10-50 μM; C: >50-100 μM; D: >100 μM.

Row | SMILES | EC50 [µM]
1 | Cc1nn(CC(F)F)c2nc(N3CCC4(CCN(c5cc(C(F)(F)F)ccn5)C4)CC3)cnc12 [Compound 178, 8-[1-(2,2-difluoroethyl)-3-methyl-1H-pyrazolo[3,4-b]pyrazin-6-yl]-2-[4-(trifluoromethyl)pyridin-2-yl]-2,8-diazaspiro[4.5]decane] | 10 to 50
2 | Cc1nc2cnn(CC(F)F)c2nc1N1CCC2(CCN(c3cc(C(F)(F)F)ccn3)C2)CC1 [Compound 179, 8-[1-(2,2-difluoroethyl)-5-methyl-1H-pyrazolo[3,4-b]pyrazin-6-yl]-2-[4-(trifluoromethyl)pyridin-2-yl]-2,8-diazaspiro[4.5]decane] | 10 to 50
3 | FC(F)(F)c1ccnc(N2CCC3(CCN(c4cncc(-c5nncs5)n4)CC3)C2)c1 [Compound 180, 8-[6-(1,3,4-thiadiazol-2-yl)pyrazin-2-yl]-2-[4-(trifluoromethyl)pyridin-2-yl]-2,8-diazaspiro[4.5]decane] | 10 to 50
4 | FC(F)Cn1ncc2ncc(N3CC4(CCN(c5cc(C(F)(F)F)ccn5)C4)C3)nc21 [Compound 181, 2-[1-(2,2-difluoroethyl)-1H-pyrazolo[3,4-b]pyrazin-6-yl]-6-[4-(trifluoromethyl)pyridin-2-yl]-2,6-diazaspiro[3.4]octane] | 10 to 50
5 | FC(F)Cn1ncc2ncc(N3CC4(CCN(c5ccc(C(F)(F)F)cn5)C4)C3)nc21 [Compound 182, 2-[1-(2,2-difluoroethyl)-1H-pyrazolo[3,4-b]pyrazin-6-yl]-6-[5-(trifluoromethyl)pyridin-2-yl]-2,6-diazaspiro[3.4]octane] | < 10
6 | FC(F)Cn1ncc2ncc(N3CC4(CCN(c5ccc(C(F)(F)F)nc5)C4)C3)nc21 [Compound 183, 2-[1-(2,2-difluoroethyl)-1H-pyrazolo[3,4-b]pyrazin-6-yl]-6-[6-(trifluoromethyl)pyridin-3-yl]-2,6-diazaspiro[3.4]octane] | 50 to 100
7 | FC(F)Cn1ncc2ncc(N3CC4(CCN(c5cncc(C(F)(F)F)c5)C4)C3)nc21 [Compound 184, 2-[1-(2,2-difluoroethyl)-1H-pyrazolo[3,4-b]pyrazin-6-yl]-6-[5-(trifluoromethyl)pyridin-3-yl]-2,6-diazaspiro[3.4]octane] | 10 to 50
8 | FC(F)Cn1ncc2ncc(N3CC4(CCN(c5cccc(C(F)(F)F)n5)C4)C3)nc21 [Compound 185, 2-[1-(2,2-difluoroethyl)-1H-pyrazolo[3,4-b]pyrazin-6-yl]-6-[6-(trifluoromethyl)pyridin-2-yl]-2,6-diazaspiro[3.4]octane] | > 100
9 | FC(F)Cn1ncc2ncc(N3CCC4(CN(c5ccc(C(F)(F)F)cn5)C4)C3)nc21 [Compound 186, 6-[1-(2,2-difluoroethyl)-1H-pyrazolo[3,4-b]pyrazin-6-yl]-2-[5-(trifluoromethyl)pyridin-2-yl]-2,6-diazaspiro[3.4]octane] | 10 to 50

Same assay, conditions: activation of GCase, EC50 ranges

Row | SMILES | EC50 [µM]
10 | FC(F)c1ccc(N2CCCC3(C2)CN(c2cnc4cnn(CC(F)(F)F)c4n2)C3)cn1 [Compound 158, 6-[6-(difluoromethyl)pyridin-3-yl]-2-[1-(2,2,2-trifluoroethyl)-1H-pyrazolo[3,4-b]pyrazin-6-yl]-2,6-diazaspiro[3.5]nonane] | > 100
11 | Cc1nn(CC(F)F)c2nc(N3CC4(CCCN(c5ccc(C(F)F)nc5)C4)C3)cnc12 [Compound 159, 2-[1-(2,2-difluoroethyl)-3-methyl-1H-pyrazolo[3,4-b]pyrazin-6-yl]-6-[6-(difluoromethyl)pyridin-3-yl]-2,6-diazaspiro[3.5]nonane] | > 100
12 | FC(F)c1ccc(N2CCCC3(C2)CN(c2cncc(-c4nncs4)n2)C3)cn1 [Compound 160, 6-[6-(difluoromethyl)pyridin-3-yl]-2-[6-(1,3,4-thiadiazol-2-yl)pyrazin-2-yl]-2,6-diazaspiro[3.5]nonane] | 10 to 50
13 | FC(F)Cn1ncc2ncc(N3CCC4(CCN(c5cc(C(F)F)ccn5)CC4)C3)nc21 [Compound 161, 2-[1-(2,2-difluoroethyl)-1H-pyrazolo[3,4-b]pyrazin-6-yl]-8-[4-(difluoromethyl)pyridin-2-yl]-2,8-diazaspiro[4.5]decane] | 10 to 50
14 | FC(F)c1ccnc(N2CCC3(CC2)CCN(c2cnc4cnn(CC(F)(F)F)c4n2)C3)c1 [Compound 162, 8-[4-(difluoromethyl)pyridin-2-yl]-2-[1-(2,2,2-trifluoroethyl)-1H-pyrazolo[3,4-b]pyrazin-6-yl]-2,8-diazaspiro[4.5]decane] | < 10
15 | Cc1nn(CC(F)F)c2nc(N3CCC4(CCN(c5cc(C(F)F)ccn5)CC4)C3)cnc12 [Compound 163, 2-[1-(2,2-difluoroethyl)-3-methyl-1H-pyrazolo[3,4-b]pyrazin-6-yl]-8-[4-(difluoromethyl)pyridin-2-yl]-2,8-diazaspiro[4.5]decane] | < 10
16 | FC(F)c1ccnc(N2CCC3(CC2)CCN(c2cncc(-c4nncs4)n2)C3)c1 [Compound 164, 8-[4-(difluoromethyl)pyridin-2-yl]-2-[6-(1,3,4-thiadiazol-2-yl)pyrazin-2-yl]-2,8-diazaspiro[4.5]decane] | 10 to 50
17 | O=C1N(c2cc(C(F)F)ccn2)CCC12CCN(c1cnc3cnn(CC(F)F)c3n1)CC2 [Compound 165, 8-[1-(2,2-difluoroethyl)-1H-pyrazolo[3,4-b]pyrazin-6-yl]-2-[4-(difluoromethyl)pyridin-2-yl]-2,8-diazaspiro[4.5]decan-1-one] | < 10
18 | O=C1N(c2cc(C(F)F)ccn2)CCC12CCN(c1cnc3cnn(CC(F)(F)F)c3n1)CC2 [Compound 166, 2-[4-(difluoromethyl)pyridin-2-yl]-8-[1-(2,2,2-trifluoroethyl)-1H-pyrazolo[3,4-b]pyrazin-6-yl]-2,8-diazaspiro[4.5]decan-1-one] | < 10
19 | Cc1nn(CC(F)F)c2nc(N3CCC4(CC3)CCN(c3cc(C(F)F)ccn3)C4=O)cnc12 [Compound 167, 8-[1-(2,2-difluoroethyl)-3-methyl-1H-pyrazolo[3,4-b]pyrazin-6-yl]-2-[4-(difluoromethyl)pyridin-2-yl]-2,8-diazaspiro[4.5]decan-1-one] | 10 to 50
20 | Cc1nn(CC(F)F)c2nc(N3CCC4(CC3)CCN(c3cc(C(F)(F)F)ccn3)C4=O)cnc12 [Compound 168, 8-[1-(2,2-difluoroethyl)-3-methyl-1H-pyrazolo[3,4-b]pyrazin-6-yl]-2-[4-(trifluoromethyl)pyridin-2-yl]-2,8-diazaspiro[4.5]decan-1-one] | < 10
21 | O=C1N(c2cc(C(F)(F)F)ccn2)CCC12CCN(c1cncc(-c3nncs3)n1)CC2 [Compound 169, 8-[6-(1,3,4-thiadiazol-2-yl)pyrazin-2-yl]-2-[4-(trifluoromethyl)pyridin-2-yl]-2,8-diazaspiro[4.5]decan-1-one] | < 10
22 | FC(F)Cn1ncc2ncc(N3CCC4(CCN(c5cccnc5C(F)(F)F)CC4)C3)nc21 [Compound 170, 2-[1-(2,2-difluoroethyl)-1H-pyrazolo[3,4-b]pyrazin-6-yl]-8-[2-(trifluoromethyl)pyridin-3-yl]-2,8-diazaspiro[4.5]decane] | 10 to 50
23 | FC(F)Cn1ncc2ncc(N3CC4(CN(c5cc(C(F)(F)F)ccn5)CCO4)C3)nc21 [Compound 171, 2-[1-(2,2-difluoroethyl)-1H-pyrazolo[3,4-b]pyrazin-6-yl]-8-[4-(trifluoromethyl)pyridin-2-yl]-5-oxa-2,8-diazaspiro[3.5]nonane] | 10 to 50
24 | FC(F)Cn1ncc2ncc(N3CC4(CN(c5ccc(C(F)(F)F)cn5)CCO4)C3)nc21 [Compound 172, 2-[1-(2,2-difluoroethyl)-1H-pyrazolo[3,4-b]pyrazin-6-yl]-8-[5-(trifluoromethyl)pyridin-2-yl]-5-oxa-2,8-diazaspiro[3.5]nonane] | 10 to 50
25 | FC(F)Cn1ncc2ncc(N3CC4(CN(c5ccc(C(F)(F)F)nc5)CCO4)C3)nc21 [Compound 173, 2-[1-(2,2-difluoroethyl)-1H-pyrazolo[3,4-b]pyrazin-6-yl]-8-[6-(trifluoromethyl)pyridin-3-yl]-5-oxa-2,8-diazaspiro[3.5]nonane] | 10 to 50
26 | FC(F)Cn1ncc2ncc(N3CCC4(CN(c5cc(C(F)(F)F)ccn5)CCO4)C3)nc21 (centres unmarked) [Compound 174, 2-[1-(2,2-difluoroethyl)-1H-pyrazolo[3,4-b]pyrazin-6-yl]-9-[4-(trifluoromethyl)pyridin-2-yl]-6-oxa-2,9-diazaspiro[4.5]decane] | 50 to 100
27 | FC(F)Cn1ncc2ncc(N3CCC4(CN(c5ccc(C(F)(F)F)cn5)CCO4)C3)nc21 (centres unmarked) [Compound 175, 2-[1-(2,2-difluoroethyl)-1H-pyrazolo[3,4-b]pyrazin-6-yl]-9-[5-(trifluoromethyl)pyridin-2-yl]-6-oxa-2,9-diazaspiro[4.5]decane] | 50 to 100
28 | FC(F)Cn1ncc2ncc(N3CCC4(CN(c5ccc(C(F)(F)F)nc5)CCO4)C3)nc21 (centres unmarked) [Compound 176, 2-[1-(2,2-difluoroethyl)-1H-pyrazolo[3,4-b]pyrazin-6-yl]-9-[6-(trifluoromethyl)pyridin-3-yl]-6-oxa-2,9-diazaspiro[4.5]decane] | > 100
29 | FC(F)(F)Cn1ncc2ncc(N3CCC4(CCN(c5cc(C(F)(F)F)ccn5)C4)CC3)nc21 [Compound 177, 8-[1-(2,2,2-trifluoroethyl)-1H-pyrazolo[3,4-b]pyrazin-6-yl]-2-[4-(trifluoromethyl)pyridin-2-yl]-2,8-diazaspiro[4.5]decane] | 50 to 100

Source: patent US20250034170A1, “SMALL MOLECULE MODULATORS OF GLUCOCEREBROSIDASE ACTIVITY AND USES THEREOF” (Vanqua Bio, Inc., priority 2021, published 2025)
